The target of the test is Bifunctional 3'-5' exonuclease/ATP-dependent helicase WRN (Homo sapiens, UniProt Q14191). Kind of test: Inhibition of WRN helicase (500 to 942 residues)(unknown origin) using fluor/quencher-labeled forked double-stranded DNA substrate assessed as decrease in helicase unwinding activity preincubated for 1 hr followed by substrate addition measured after 1 hr in presence of ATP by fluorescence based assay.
Bifunctional 3'-5' exonuclease/ATP-dependent helicase WRN, sequence (Q14191 whole entry, the tested form may be a part): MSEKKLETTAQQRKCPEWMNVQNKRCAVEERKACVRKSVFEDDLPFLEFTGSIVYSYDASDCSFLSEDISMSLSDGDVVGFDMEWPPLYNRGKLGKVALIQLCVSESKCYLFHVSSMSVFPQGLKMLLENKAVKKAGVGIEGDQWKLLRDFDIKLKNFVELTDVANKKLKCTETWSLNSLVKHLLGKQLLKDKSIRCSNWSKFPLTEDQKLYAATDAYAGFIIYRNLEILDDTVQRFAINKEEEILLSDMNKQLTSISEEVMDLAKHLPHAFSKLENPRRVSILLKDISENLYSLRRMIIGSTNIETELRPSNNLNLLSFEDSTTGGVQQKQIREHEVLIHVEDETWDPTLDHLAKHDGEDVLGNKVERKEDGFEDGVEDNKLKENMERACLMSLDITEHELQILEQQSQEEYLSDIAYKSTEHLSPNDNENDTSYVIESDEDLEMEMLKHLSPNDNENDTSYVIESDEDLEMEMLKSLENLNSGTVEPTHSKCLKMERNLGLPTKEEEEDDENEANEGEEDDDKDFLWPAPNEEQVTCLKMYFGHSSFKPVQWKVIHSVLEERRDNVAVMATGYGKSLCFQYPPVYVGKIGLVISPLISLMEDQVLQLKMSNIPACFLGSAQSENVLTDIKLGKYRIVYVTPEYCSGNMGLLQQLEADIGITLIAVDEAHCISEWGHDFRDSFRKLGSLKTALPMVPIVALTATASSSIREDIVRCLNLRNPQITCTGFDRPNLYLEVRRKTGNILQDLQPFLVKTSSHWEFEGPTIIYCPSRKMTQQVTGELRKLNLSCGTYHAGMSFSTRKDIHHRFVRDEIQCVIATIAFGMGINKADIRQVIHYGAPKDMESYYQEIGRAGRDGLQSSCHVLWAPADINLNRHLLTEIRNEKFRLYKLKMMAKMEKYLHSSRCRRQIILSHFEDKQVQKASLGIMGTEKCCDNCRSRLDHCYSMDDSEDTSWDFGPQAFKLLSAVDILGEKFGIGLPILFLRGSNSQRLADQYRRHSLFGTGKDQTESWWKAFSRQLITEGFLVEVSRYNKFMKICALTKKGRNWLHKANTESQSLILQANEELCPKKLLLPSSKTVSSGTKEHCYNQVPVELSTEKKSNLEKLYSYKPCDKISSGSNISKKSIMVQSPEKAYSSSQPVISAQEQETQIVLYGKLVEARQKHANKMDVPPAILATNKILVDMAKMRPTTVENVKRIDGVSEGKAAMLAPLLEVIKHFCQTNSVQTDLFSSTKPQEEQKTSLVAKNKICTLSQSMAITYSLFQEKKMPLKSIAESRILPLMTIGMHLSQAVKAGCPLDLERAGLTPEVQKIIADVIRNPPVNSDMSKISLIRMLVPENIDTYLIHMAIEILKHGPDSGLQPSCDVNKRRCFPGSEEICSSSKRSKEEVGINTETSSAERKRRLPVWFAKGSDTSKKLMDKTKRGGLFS

Consider `CC1CC2(CCN(C(=O)c3ncccc3O)CC2)c2c1n(CC(=O)Nc1ccc(C(F)(F)F)cc1)c1nc(C3=CCOCC3)nn1c2=O` (configuration not stated), for which the IC50 was found to be 1.9 nM.

`CC(=O)N1CC=C(c2nc3n(CC(=O)Nc4ccc(C(F)(F)F)cc4Cl)c4c(c(=O)n3n2)C2(CCN(C(=O)c3ncccc3O)CC2)CC4C)CC1` (configuration not stated): the IC50 is 2 nM.
